From US10584127B2, “3,3-difluoropiperidine carbamate heterocyclic compounds as NR2B NMDA receptor antagonists” (Rugen Holdings (Cayman) Limited, priority 2015, dated 2020)

What was measured:
[1] = system: formalin-induced nociceptive behavior; assay: Rat Formalin Model; type: in vivo; conditions: rat, 10, 30 and 60 mpk i.p., mesylate salt
Experimental: The rat formalin model is a tonic model of continuous pain resulting from formalin-induced spontaneous nociceptive behaviors. Intra-paw injection of formalin is a commonly used model to measure spontaneous nociceptive behaviors in rodents (Dubuisson, D. and Dennis, S. G. Pain 4:161, 1977). Subcutaneous plantar injection of formalin causes a bi-phasic nocifensive behavioral response in rodents. The early phase (phase-I) lasts for about 5-10 min following which an interphase occurs without any discernible nociceptive reactions after which the late phase (phase-II) nociceptive reaction ensues continuing from about 20-60 min following formalin injection. Formalin model is a model of tonic, persistent pain, and is widely used for rapid screening of novel analgesic compounds. […] In the present example, effects of test item were assessed in 0-5 minutes from the early phase (phase-I) and 20-35 minutes from the late phase (phase-II) of formalin-induced nociceptive behavior. […]
For all groups, animals were acclimated to the observation chamber for 15 minutes immediately prior to formalin injection. All animals received an intraplantar subcutaneous injection of 50 μL of 5% formalin into the left hind paw and then placed immediately into an observation chamber and formalin-evoked spontaneous nociceptive behaviors in the rats were continuously recorded for 0-60 min using a commercial camcorder. […]

[2] = system: KCl-induced cortical spreading depression; assay: Cortical spreading depression (CSD), aura phase of migraine model; type: in vivo; conditions: rats, mesylate salt
Experimental: The cortical spreading depression model is utilized to investigate whether treatment with compounds of the present invention affect electrophysiological and hemodynamic events in a rat model of migraine.
Rats were anesthetized with 5% isoflurane (in 70% N2O and 30% O2; flow 300 ml/min) and placed in a stereotactic frame. […] The rectal temperature was maintained at 37.0±1.0° C. with a homeothermic blanket system. The skin was opened by a medial incision and retracted laterally. Three burr holes were drilled under saline cooling over the right hemisphere at the following coordinates (mm from bregma): (1) posterior 4.5, lateral, 2.0 (occipital cortex): KCl application site; (2) posterior 0.5, lateral 2.0 (parietal cortex): LDF recording site; (3) anterior 2, lateral 2 (frontal cortex): DC potential recording site. A laser-Doppler flow probe (Oxyflow, Oxford Optronics, UK) to monitor CBF and an invasive Ag/AgCl electrode for measuring direct current (DC) potential shifts were placed in the parietal and frontal cortex burr holes on the intact dura and in the cortex, respectively. The laser-Doppler flow probe was positioned in an area free of large pial and dural vessels to minimize a large-vessel contribution to the signal. For the DC-potential measurement, a reference electrode was fixed in the neck. Dura overlying the occipital cortex was gently removed and care was taken to avoid bleeding. After surgical preparation, the cortex was allowed to recover for 15 minutes under saline irrigation. A cotton ball (2 mm diameter) soaked with 1M KCl was placed on the pial surface and kept moist by placing 5 μl of KCl solution every 15 minutes. Test compound or vehicle was administered ten (10) minutes prior to CSD initiation. […] The number of KCl-induced CSDs was counted for 2 hours. The CBF and DC-potentials were monitored continuously starting from 5 minutes before KCl exposure.
Test compound E1-1.2 was administered as a mesylate salt (mpk based on molecular weight of the mesylate salt).
The data was collected in Windaq acquisition software (Dataq Instruments, USA) at 20 kHz. The raw data was analyzed in Clampfit program (Axon Instruments, USA). The signals were low pass filtered (cut off range 5-10000 Hz) that CSD episodes in DC and CBF could be confirmed. The following parameters were analyzed: i) the number, duration and amplitude of DC-potentials, and ii) the number and amplitude of CBF events.
Doses were given as milligram per kilogram (mpk). […] Bars represent mean±Standard Error of Mean (SEM), and differences were considered to be statistically significant at the P<0.05 level (n=8, * different from vehicle group). Statistical analysis was performed using StatsDirect statistical software. Differences between groups were analyzed by using 1-way ANOVA and Dunnett's post hoc test.

Compound: Cc1ccc(COC(=O)N2CC[C@H](CNc3nccn4cnnc34)C(F)(F)C2)cc1 [Compound E1-1.2, (+)-R-4-methylbenzyl 4-(([1,2,4]triazolo[4,3-a]pyrazin-8-ylamino)methyl)-3,3-difluoropiperidine-1-carboxylate]
- cumulative time spent on nociceptive behavior in phase I (0-5 mins) [1]: decreased
- cumulative time spent on nociceptive behavior in phase II (20-35 mins) [1]: decreased
- number of CBF events vs vehicle ([2]; 10 mg/kg): decreased
- number of DC potentials vs vehicle group ([2]; 3 mpk, 10 mpk and 30 mpk): significantly decreased
- magnitude of CBF vs vehicle [2]: unchanged
- amplitude of DC potentials vs vehicle ([2]; various doses): not statistically different
- duration of DC potentials vs vehicle ([2]; various doses): not statistically different
